# The supplement of paper PMC10883282
# ± gives the standard deviation of the averaged measurements.
# Assays:
# Assay in all cases: relative viability vs DMSO control (72 h) (fraction); higher = more viable cells
# A204 = system: A204
# How it was run: (§1)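 Serially diluted compound, 2.5 µl from source plates spanning 10 mM to 0.0002 mM, was added 24 h after sarcoma cell lines were seeded in 384-well plates at densities targeting 80–90% confluence. Plates then sat 72 h at 37 °C, 5% CO2, with 0.1% DMSO vehicle and a 5 µM positive control. Relative viability came from ATPLite as percent growth, averaged over up to triplicate wells, and was rescaled with 1 as full and 0 as none.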
# G401 = system: G401
# How it was run: as §1
# HS729 = system: HS729
# How it was run: as §1
# KHOS-NP = system: KHOS-NP
# How it was run: as §1
# MES-SA = system: MES-SA
# How it was run: as §1
# RD = system: RD
# How it was run: as §1
structure (smiles),measurement,setting,value
COc1cc(Nc2ncc3c(n2)-c2ccc(Cl)cc2C(c2c(F)cccc2OC)=NC3)ccc1C(=O)O [Alisertib],relative viability,A204; 0.00017 µM,1.07 ± 0.042
same,relative viability,A204; 0.00051 µM,1.073 ± 0.009
same,relative viability,A204; 0.00152 µM,1.07 ± 0.022
same,relative viability,A204; 0.00457 µM,1.03 ± 0.014
same,relative viability,A204; 0.01372 µM,1.07 ± 0.035
same,relative viability,A204; 0.04115 µM,1.06 ± 0.036
same,relative viability,A204; 0.1235 µM,0.882 ± 0.12
same,relative viability,A204; 0.3704 µM,0.796 ± 0.037
same,relative viability,A204; 1.111 µM,0.768 ± 0.065
same,relative viability,A204; 3.333 µM,0.7276 ± 0.0066
same,relative viability,A204; 10 µM,0.711 ± 0.045
same,relative viability,G401; 0.00017 µM,1.01 ± 0.057
same,relative viability,G401; 0.00051 µM,0.979 ± 0.03
same,relative viability,G401; 0.00152 µM,0.984 ± 0.024
same,relative viability,G401; 0.00457 µM,0.966 ± 0.061
same,relative viability,G401; 0.01372 µM,0.892 ± 0.014
same,relative viability,G401; 0.04115 µM,0.845 ± 0.04
same,relative viability,G401; 0.1235 µM,0.756 ± 0.024
same,relative viability,G401; 0.3704 µM,0.706 ± 0.054
same,relative viability,G401; 1.111 µM,0.705 ± 0.033
same,relative viability,G401; 3.333 µM,0.637 ± 0.031
same,relative viability,G401; 10 µM,0.563 ± 0.016
same,relative viability,HS729; 0.00017 µM,0.938 ± 0.02
same,relative viability,HS729; 0.00051 µM,0.943 ± 0.021
same,relative viability,HS729; 0.00152 µM,0.932 ± 0.025
same,relative viability,HS729; 0.00457 µM,0.888 ± 0.045
same,relative viability,HS729; 0.01372 µM,0.859 ± 0.037
same,relative viability,HS729; 0.04115 µM,0.879 ± 0.078
same,relative viability,HS729; 0.1235 µM,0.793 ± 0.092
same,relative viability,HS729; 0.3704 µM,0.77 ± 0.052
same,relative viability,HS729; 1.111 µM,0.733 ± 0.057
same,relative viability,HS729; 3.333 µM,0.689 ± 0.04
same,relative viability,HS729; 10 µM,0.716 ± 0.071
same,relative viability,KHOS-NP; 0.00017 µM,1.08 ± 0.019
same,relative viability,KHOS-NP; 0.00051 µM,1.1 ± 0.021
same,relative viability,KHOS-NP; 0.00152 µM,1.09 ± 0.021
same,relative viability,KHOS-NP; 0.00457 µM,1.08 ± 0.019
same,relative viability,KHOS-NP; 0.01372 µM,1.09 ± 0.013
same,relative viability,KHOS-NP; 0.04115 µM,1.07 ± 0.014
same,relative viability,KHOS-NP; 0.1235 µM,1.06 ± 0.018
same,relative viability,KHOS-NP; 0.3704 µM,1.05 ± 0.053
same,relative viability,KHOS-NP; 1.111 µM,0.951 ± 0.051
same,relative viability,KHOS-NP; 3.333 µM,0.925 ± 0.034
same,relative viability,KHOS-NP; 10 µM,0.672 ± 0.012
same,relative viability,MES-SA; 0.00017 µM,0.914 ± 0.021
same,relative viability,MES-SA; 0.00051 µM,0.932 ± 0.031
same,relative viability,MES-SA; 0.00152 µM,0.9332 ± 0.0036
same,relative viability,MES-SA; 0.00457 µM,0.933 ± 0.032
same,relative viability,MES-SA; 0.01372 µM,0.9174 ± 0.0058
same,relative viability,MES-SA; 0.04115 µM,0.621 ± 0.018
same,relative viability,MES-SA; 0.1235 µM,0.363 ± 0.005
same,relative viability,MES-SA; 0.3704 µM,0.353 ± 0.0075
same,relative viability,MES-SA; 1.111 µM,0.328 ± 0.014
same,relative viability,MES-SA; 3.333 µM,0.325 ± 0.014
same,relative viability,MES-SA; 10 µM,0.316 ± 0.011
same,relative viability,RD; 0.00017 µM,1.08 ± 0.029
same,relative viability,RD; 0.00051 µM,1.1 ± 0.035
same,relative viability,RD; 0.00152 µM,1.09 ± 0.028
same,relative viability,RD; 0.00457 µM,1.06 ± 0.015
same,relative viability,RD; 0.01372 µM,1.07 ± 0.057
same,relative viability,RD; 0.04115 µM,1.04 ± 0.053
same,relative viability,RD; 0.1235 µM,0.863 ± 0.031
same,relative viability,RD; 0.3704 µM,0.679 ± 0.028
same,relative viability,RD; 1.111 µM,0.517 ± 0.04
same,relative viability,RD; 3.333 µM,0.517 ± 0.037
same,relative viability,RD; 10 µM,0.474 ± 0.031
